According to patent US9278107B2, “Antibacterial agent composition and antiviral agent composition comprising silicon-containing compound; antibacterializing method, cleaning/mouth rinsing method; method for fixing antibacterial agent and antiviral agent” (Hiroshima University, priority 2008, dated 2016):

Columns and labels:
[1] = system: Escherichia coli WP2uvrA and Salmonella typhimurium TA series strains (TA100, TA1535, TA98 and TA1537); conditions: positive control
[2] = system: influenza virus A A/swan/Shimane/499/83(H5N3); assay type: cell-based, influenza virus A (avian); conditions: reacted with virus at room temperature for 3 minutes, diluted with DMEM, MDCK(+) cells, TCID50; (20 ppm)
[3] = system: atypical (swine) influenza virus (type H1N1); assay type: cell-based

| SMILES | number of reverse mutant colonies as compared with negative control [1] | EtAC dilution at which it is still effective [2] [%] | virus inactivating effect [3] |
| --- | --- | --- | --- |
| NC(=O)C(=Cc1ccc([N+](=O)[O-])o1)c1ccco1 [2-(2-furyl)-3-(5-nitro-2-furyl)acrylamide] | remarkable increase |  |  |
| Cl.Nc1c2ccccc2nc2ccccc12 [9-Aminoacridine hydrochloride] | remarkable increase |  |  |
| [N-]=[N+]=[N-] [sodium azide] | remarkable increase |  |  |
| CCCCCCCCCCCCCCCCCC[N+](C)(C)CCC[Si](OCC)(OCC)OCC.[Cl-] [EtAC, octadecyldimethyl(3-triethoxysilylpropyl)ammonium chloride] |  | 0.002 | highly significant effects are found |
